Key:
wild type Hdh mRNA = assay: QSI treatment of control ES cells expressing a single wild type Hdh allele, Hdh mRNA by quantitative real time PCR; type: cell-based, mouse; conditions: QSI for six hours, high glutamine, FIG. 2C
Procedure: (§1) ES cell lines hemizygous for HdhQ150 were treated with an inhibitor of the glutaminyl-tRNA synthetase, QSI (5′-O-[N-(L-glutaminyl)sulfamoyl]adenosine) for six hours in the presence of high levels of glutamine. […] In this case the long CAG repeat is used to represent a rare cluster of codons. This diminishment in disease allele expression was accomplished in the presence of high amounts of glutamine (1.2 grams/ml) showing that reduction of expression can be attained by inhibition of a tRNA synthetase while providing normal amounts of the amino acid which is a substrate for the synthetase reaction. […]
(§2) Since the quantitative real time PCR (QRTPCR) assay (described below) cannot distinguish between different alleles of Hdh it is necessary that the ES cells only express a single allele. […] These engineered ES cells express only the long repeat version of Hdh and lack wild type Hdh mRNA as determined by RT-PCR across the repeat region.
(§3) Finally, a quantitative real time PCR (QRTPCR) assays has been developed for both Hprt and Hdh mRNA. […] During the PCR reaction the polymerase destroys the oligo releasing the […] to allow fluorescence. Fluorescence is measured though every cycle and the point when it increases beyond threshold is logarithmically related to the amount of starting RNA. […]

HdhQ150 mRNA = assay: QSI treatment of ES cells hemizygous for HdhQ150, Hdh mRNA by quantitative real time PCR; type: cell-based, mouse; conditions: ES cells hemizygous for HdhQ150, QSI for six hours, high glutamine (1.2 grams/ml), FIG. 2C
Procedure: as §1, §2, §3

NC(=O)CC[C@H](N)C(=O)NS(=O)(=O)OC[C@H]1O[C@@H](n2cnc3c(N)ncnc32)[C@H](O)[C@@H]1O [QSI, 5′-O-[N-(L-glutaminyl)sulfamoyl]adenosine]
wild type Hdh mRNA levels (wild type Hdh mRNA): effect of QSI in lowering Hdh mRNA levels was dependent on the presence of the long CAG repeat | HdhQ150 mRNA levels (HdhQ150 mRNA): lowered by QSI treatment in a dose dependent manner

From patent US20080318884A1, “Methods for Altering Gene Expression and Methods of Treatment Utilizing Same” (THE UAB RESEARCH FOUNDATION, priority 2005, published 2008)
